Measurements taken from PMC10018501 (ACS Omega, 2023).
Where “and” joins values, the source holds several entries; their conditions need not be identical. Equal values may be shown once.

Legend:
[1] = system: ICV Aβ1–42-induced rat model; experiment: Aβ-induced Morris water maze test; conditions: SD-6 10 mg/kg, donepezil 5 mg/kg, orally 9 days; vs Aβ group
acetylcholine (ACh) = experiment: Ex vivo ACh estimation; format: in vivo, rat; conditions: scopolamine-treated rats; SD-6 2.5, 5, 10 mg/kg
[2] = system: superoxide dismutase (SOD); experiment: Ex vivo SOD assay; format: in vivo, rat; conditions: scopolamine-treated rats; SD-6 2.5, 5, 10 mg/kg; donepezil 5 mg/kg
Aβ1–42 = Aβ1–42 (Homo sapiens, UniProt P05067); experiment: Self-induced Aβ aggregation inhibition thioflavin T assay; format: biochemical; conditions: compound 5, 10 and 20 μM; Aβ 10 μM
Sequence of Aβ1–42 (P05067 672-713): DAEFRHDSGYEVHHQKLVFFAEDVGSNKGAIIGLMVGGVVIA

in vitro = conditions: PAMPA, pH 7.4
[3] = system: nondifferentiated SH-SY5Y cells; experiment: Neuroprotective estimation; format: cell-based; conditions: Homo sapiens, 24 h, read-out: cell viability
[4] = system: differentiated SH-SY5Y cells; experiment: Neurotoxicity estimation; format: cell-based; conditions: 10, 20, 40 and 80 μM, 24 h
AChE = experiment: Ex vivo AChE estimation in hippocampal homogenate; parameters: species or system rat; conditions: scopolamine-treated rats; SD-6 2.5, 5, 10 mg/kg
hBChE = hBChE (Equus caballus, UniProt P81908); experiment: In vitro hBChE inhibition assay; format: biochemical, human
Sequence of hBChE (P81908 whole entry): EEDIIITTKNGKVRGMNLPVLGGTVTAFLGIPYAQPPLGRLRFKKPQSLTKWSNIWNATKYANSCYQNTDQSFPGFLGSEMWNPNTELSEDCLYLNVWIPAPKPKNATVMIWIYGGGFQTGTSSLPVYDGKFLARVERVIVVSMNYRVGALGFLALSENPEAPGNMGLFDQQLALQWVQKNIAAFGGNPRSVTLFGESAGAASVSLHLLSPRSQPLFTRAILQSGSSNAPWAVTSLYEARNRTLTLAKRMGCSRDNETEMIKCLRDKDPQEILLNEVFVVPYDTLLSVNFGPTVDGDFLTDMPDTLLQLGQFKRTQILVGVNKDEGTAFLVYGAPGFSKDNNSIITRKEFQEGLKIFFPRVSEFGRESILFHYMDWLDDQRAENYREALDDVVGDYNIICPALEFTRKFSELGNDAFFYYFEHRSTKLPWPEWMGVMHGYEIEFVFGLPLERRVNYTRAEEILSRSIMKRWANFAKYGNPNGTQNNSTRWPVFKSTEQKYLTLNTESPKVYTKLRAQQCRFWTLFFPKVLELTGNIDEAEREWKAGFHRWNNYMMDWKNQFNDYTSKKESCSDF

[5] = system: scopolamine-induced rat model; experiment: Scopolamine-induced Y-maze test; format: in vivo, Wistar rats; conditions: SD-6 2.5, 5, 10 mg/kg p.o.; donepezil 5 mg/kg p.o.; 7 days; vs scopolamine group
female Wistar rats = experiment: Acute oral toxicity study; format: in vivo
Aβ1–42 with hAChE = Aβ1–42 with hAChE (Homo sapiens, UniProt P22303); experiment: hAChE-induced Aβ aggregation inhibition thioflavin T assay; format: biochemical; conditions: compound 5, 10 and 20 μM; Aβ 10 μM
Sequence of Aβ1–42 with hAChE (P22303 32-588 isoform P22303-2): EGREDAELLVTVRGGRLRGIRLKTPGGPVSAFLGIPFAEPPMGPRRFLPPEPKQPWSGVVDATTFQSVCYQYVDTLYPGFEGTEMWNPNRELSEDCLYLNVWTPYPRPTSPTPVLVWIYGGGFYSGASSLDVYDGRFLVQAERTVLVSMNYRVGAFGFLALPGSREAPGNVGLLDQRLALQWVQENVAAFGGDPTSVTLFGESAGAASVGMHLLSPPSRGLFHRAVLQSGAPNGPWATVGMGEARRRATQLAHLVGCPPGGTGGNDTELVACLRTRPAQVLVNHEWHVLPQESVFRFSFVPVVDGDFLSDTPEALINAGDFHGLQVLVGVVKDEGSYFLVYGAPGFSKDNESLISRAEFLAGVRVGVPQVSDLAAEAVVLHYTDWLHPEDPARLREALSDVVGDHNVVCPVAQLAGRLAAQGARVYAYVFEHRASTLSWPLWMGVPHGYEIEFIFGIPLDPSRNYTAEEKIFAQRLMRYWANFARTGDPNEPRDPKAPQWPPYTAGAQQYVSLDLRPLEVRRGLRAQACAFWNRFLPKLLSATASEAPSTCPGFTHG

hAChE [6] = molecular target: T1, hAChE (Homo sapiens, UniProt P22303); experiment: In vitro hAChE inhibition assay; format: biochemical
T1 sequence (P22303 32-617 isoform P22303-2 limits assumed): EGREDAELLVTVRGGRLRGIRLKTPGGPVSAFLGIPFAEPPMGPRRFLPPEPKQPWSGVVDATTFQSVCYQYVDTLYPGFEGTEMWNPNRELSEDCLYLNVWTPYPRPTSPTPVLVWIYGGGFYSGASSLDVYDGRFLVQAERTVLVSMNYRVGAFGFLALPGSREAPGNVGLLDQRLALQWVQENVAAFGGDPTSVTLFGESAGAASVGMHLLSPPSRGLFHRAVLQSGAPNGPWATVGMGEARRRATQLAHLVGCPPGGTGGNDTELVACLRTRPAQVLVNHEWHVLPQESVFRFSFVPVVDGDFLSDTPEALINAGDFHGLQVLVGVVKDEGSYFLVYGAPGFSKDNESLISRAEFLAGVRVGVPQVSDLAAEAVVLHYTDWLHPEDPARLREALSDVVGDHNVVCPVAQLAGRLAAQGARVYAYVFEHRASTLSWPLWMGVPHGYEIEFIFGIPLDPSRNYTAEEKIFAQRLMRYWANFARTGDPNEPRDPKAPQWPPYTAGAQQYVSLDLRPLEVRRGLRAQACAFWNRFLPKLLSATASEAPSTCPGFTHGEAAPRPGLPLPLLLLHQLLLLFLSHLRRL

catalase = experiment: Ex vivo catalase assay; format: in vivo, rat; conditions: scopolamine-treated rats; SD-6 2.5, 5, 10 mg/kg; donepezil 5 mg/kg
[7] = system: hippocampal brain (dentate gyrus) neurons; experiment: Brain tissue histopathology; format: in vivo, rat; conditions: Aβ1–42 rats, SD-6 10 mg/kg, donepezil 5 mg/kg
glutathione (GSH) = experiment: Ex vivo reduced glutathione; format: in vivo, rat; conditions: scopolamine-treated rats; SD-6 2.5, 5, 10 mg/kg; donepezil 5 mg/kg
hAChE [8] = molecular target: T1, hAChE; experiment: hAChE enzyme kinetics; format: biochemical; conditions: substrate ATCI
[9] = n = 3, mean ± SEM
hBACE-1 = hBACE-1 (Homo sapiens, UniProt P56817); experiment: biochemical; conditions: IC50 ± SEM hBACE-1, n = 3
Sequence of hBACE-1 (P56817 46-501): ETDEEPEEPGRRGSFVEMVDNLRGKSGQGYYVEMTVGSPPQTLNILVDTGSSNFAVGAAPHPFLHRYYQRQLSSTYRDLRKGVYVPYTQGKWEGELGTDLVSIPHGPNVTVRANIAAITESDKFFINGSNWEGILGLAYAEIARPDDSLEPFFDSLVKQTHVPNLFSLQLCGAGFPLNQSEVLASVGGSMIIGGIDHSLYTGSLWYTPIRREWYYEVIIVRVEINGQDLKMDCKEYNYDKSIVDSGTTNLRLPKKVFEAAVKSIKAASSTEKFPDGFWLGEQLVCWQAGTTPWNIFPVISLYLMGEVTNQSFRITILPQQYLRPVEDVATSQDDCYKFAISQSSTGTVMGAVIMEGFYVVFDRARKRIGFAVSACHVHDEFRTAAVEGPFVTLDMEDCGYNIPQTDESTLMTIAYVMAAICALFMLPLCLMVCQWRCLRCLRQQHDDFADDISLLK

[10] = molecular target: PAS-AChE (hAChE-PAS region) (Homo sapiens, UniProt P22303); experiment: Propidium iodide displacement assay; format: binding
Sequence of PAS-AChE (hAChE-PAS region) (P22303 32-617 isoform P22303-2 limits assumed): as the sequence (P22303 32-617 isoform P22303-2 limits assumed) above

malonaldehyde (MDA) = experiment: Ex vivo MDA estimation; format: in vivo, rat; conditions: scopolamine-treated rats; SD-6 2.5, 5, 10 mg/kg; donepezil 5 mg/kg

## S=c1oc(-c2ccccc2)nn1CN1CCN(Cc2ccccc2)CC1 [SD-6, 3-((4-Benzylpiperazin-1-yl)methyl)-5-phenyl-1,3,4-oxadiazole-2(3H)-thione]
[1]
  escape latency time (ELT): significant change as compared to the Aβ group
  time spent in the platform zone: significantly (^bp < 0.001) higher
  total number of entries to the platform zone: significantly (^bp < 0.001) different from the Aβ-treated animal group
Acetylcholine (ACh)
  ACh brain level: dose-dependent increase
[2]
  SOD level: elevation of SOD levels
Aβ1–42
  % Aβ aggregation inhibition, self-induced: 22–69%
In vitro
  Papp: 5.643 ± 0.021 ×10⁻⁶ cm/s
[3]
  viability at 5 µM: 61.4%
  viability at 10 µM: 74%
  viability at 20 µM: 83.6%
[4]
  neurotoxicity (MTT, cell population and morphology): non-neurotoxic
AChE
  AChE level (hippocampal): dose-dependent decrease
hBChE
  IC50: 1580 ± 37 nM
[5]
  % spontaneous alterations: significant increase in % spontaneous alterations in a dose-dependent manner
Female Wistar rats; 100–500 mg/kg, p.o., regained in 10–12 days
  weight loss (initial, in some animals): 12–25%
Female Wistar rats; after 14 days
  organ histopathology (kidney, liver, lungs, heart; H&E): normal tissue appearance
Female Wistar rats; blood samples after acute toxicity study
  hepatic and renal function tests: within the range
Aβ1–42 with hAChE
  % Aβ aggregation inhibition, hAChE-induced: 41–81%
hAChE [6]; IC50 ± SEM hAChE, n = 3
  IC50: 907 ± 11 nM
hAChE [6]; hAChE inhibitory activity (good/moderate/poor), class in words
  IC50: < 1000 nM
catalase
  catalase activity: elevation of both the biomarkers
[7]
  neuronal morphology (dentate gyrus): less disordered neuronal arrangement and vacuolar fibrosis
[7]; vs Aβ1–42-treated group
  neuronal density (dentate gyrus): higher
Glutathione (GSH)
  GSH level: elevation of both the biomarkers
hAChE [8]
  type of inhibition (Lineweaver–Burk plot): mixed-type noncompetitive
[9]
  Pe(exp) PAMPA–BBB: 5.643 10^–6 cm/s
hBACE-1
  IC50: 753 ± 18 nM
[10]; [I] = 10 μM
  PAS-AChE propidium iodide displacement (%): 27.3% and 27.316 ± 1.208%
[10]; [I] = 50 μM
  PAS-AChE propidium iodide displacement (%): 56.2% and 56.238 ± 1.338%
Malonaldehyde (MDA)
  MDA level: declines in MDA
